{
  "source": "paper PMC4699463",
  "about": "(2015)",
  "assay_in_all_cases": "F-neo fluorescence displacement",
  "key": {"[1]": {"tested_on": "hsa-miR 335 (RNA, miRNA) UCAAGAGCAAUAACGAAAAAUGUUU/ACAUUUUUCGUUAUUGCUCUUGAUU", "conditions": "25 mM KCl; 10 mM sodium phosphate, 0.05 mM EDTA, pH 6.5; tracer 100 nM F-neo, 100 nM miRNA; per site"}, "[2]": {"tested_on": "hsa-miR 142 (RNA, miRNA) CAUAAAGUAGAAAGCACUACUUU/AGUAGUGCUUUCUACUUUAUGUU", "conditions": "25 mM KCl; 10 mM sodium phosphate, 0.05 mM EDTA, pH 6.5; tracer 100 nM F-neo, 100 nM miRNA; per site"}, "[3]": {"tested_on": "hsa-miR 504 (RNA, miRNA) AGACCCUGGUCUGCACUCUAUCUU/GAUAGAGUGCAGACCAGGGUCUUU", "conditions": "25 mM KCl; 10 mM sodium phosphate, 0.05 mM EDTA, pH 6.5; tracer 100 nM F-neo, 50 nM miRNA; per site"}, "[4]": {"tested_on": "pre-hsa-miR 504 (RNA, miRNA) GCUGCUGUUGGGAGACCCUGGUCUGCACUCUAUCUGUAUUCUUACUGAAGGGAGUGCAGGGCAGGGUUUCCCAUACAGAGGGC", "conditions": "25 mM KCl; 10 mM sodium phosphate, 0.05 mM EDTA, pH 6.5; tracer 100 nM F-neo, 16.7 nM pre-miRNA; per site"}},
  "data": [
    {"molecule": "NC[C@@H]1O[C@H](O[C@H]2[C@@H](O)[C@H](O[C@@H]3[C@@H](O)[C@H](N)C[C@H](N)[C@H]3O[C@H]3O[C@H](CN)[C@@H](O)[C@H](O)[C@H]3N)O[C@@H]2CO)[C@H](N)[C@@H](O)[C@@H]1O", "values": [
      {"measurement": "IC50", "setting": "[1]", "value": "117.4 ± 8.1", "unit": "nM"},
      {"measurement": "IC50", "setting": "[2]", "value": "95.7 ± 5.6", "unit": "nM"},
      {"measurement": "IC50", "setting": "[3]", "value": "70.3 ± 1.6", "unit": "nM"},
      {"measurement": "IC50", "setting": "[4]", "value": "56.2 ± 2.3", "unit": "nM"}
    ]}
  ]
}
